Data reported in US20190169221A1, “SUBSTITUTED NUCLEOSIDES, NUCLEOTIDES AND ANALOGS THEREOF” (Janssen BioPharma, Inc., priority 2016, published 2019).
Like-named read-outs stand apart in the source and are kept apart here.

What was measured:
[1] = tested on: Dengue virus type 2 strain New Guinea C (NG-C); assay: Dengue viral assay (cytopathic effect, Huh-7.5 cells); format: cell-based; conditions: read-out: Dengue NGC EC50
Experimental: The Dengue virus type 2 strain New Guinea C (NG-C) and the Dengue virus type 4 strain H241 were purchased from ATCC (Manassas, Va.; item numbers VR-1584 and VR-1490, respectively). The Zika virus strain MR766 was purchased from ATCC (item #VR-1838) and the Zika virus strain IbH 30656 was purchased from BEI Resources (Manassas, Va.; item number NR-500066). 24 h prior to dosing, Huh-7.5 cells were plated in 96 well plates at a density of 1.5×10^5/mL in DMEM medium supplemented with 10% fetal bovine serum, 1% HEPES buffer, 1% Penicillin/Streptomycin and 1% non-essential amino acids (all Mediatech, Manassas, Va.). At the day of infection, serially diluted compounds were added to cells and incubated for 24 h. After the end of the 24 h pre-incubation period, cells were infected with either Dengue virus type 2 NG-C, Dengue virus type 4 H241, Zika virus strain MR766 or Zika virus strain IbH 30656. The virus inoculum was selected to cause 80-90% cytopathic effect in four (Zika) to five (Dengue) days. Infected cells were incubated for four to five days at 37° C., 5% CO2. To develop the assay, 100 μL media was replaced with 100 μl CellTiter-Glo® reagent (Promega, Madison, Wis.) and incubated for 10 mins at R.T. Luminescence was measured on a Victor ×3 multi-label plate reader. Potential compound cytotoxicity was determined using uninfected parallel cultures.

Human rhinovirus 1B = assay: Picornavirus / enterovirus assay, HRV 1B (HeLa-OHIO cells); format: cell-based; conditions: read-out: HRV 1B EC50
Dengue viral polymerase = Dengue viral polymerase (Dengue virus type 2, UniProt P14340); assay: biochemical; conditions: triphosphates; read-out: Viral Polymerase Inhibition IC50 Dengue
[2] = molecular target: human rhinovirus 16 polymerase (HRV16pol) (Human rhinovirus 16, UniProt Q82122); assay: Picornavirus polymerase inhibition assay; format: biochemical; conditions: triphosphates, read-out: Viral Polymerase Inhibition IC50 Picornavirus
Sequence of human rhinovirus 16 polymerase (HRV16pol) (Q82122 1694-2153 limits assumed): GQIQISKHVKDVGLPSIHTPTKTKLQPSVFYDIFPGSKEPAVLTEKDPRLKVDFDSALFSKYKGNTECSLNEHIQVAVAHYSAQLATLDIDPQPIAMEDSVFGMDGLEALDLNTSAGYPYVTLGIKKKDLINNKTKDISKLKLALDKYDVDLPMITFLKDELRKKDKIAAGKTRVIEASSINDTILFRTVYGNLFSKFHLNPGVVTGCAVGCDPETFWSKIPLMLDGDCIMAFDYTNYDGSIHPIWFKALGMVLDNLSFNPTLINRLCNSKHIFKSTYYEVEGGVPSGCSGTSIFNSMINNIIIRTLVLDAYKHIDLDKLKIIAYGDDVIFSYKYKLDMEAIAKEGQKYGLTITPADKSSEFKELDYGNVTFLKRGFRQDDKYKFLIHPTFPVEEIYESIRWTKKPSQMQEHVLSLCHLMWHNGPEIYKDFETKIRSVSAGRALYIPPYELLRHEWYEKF
Experimental: The enzyme activity of human rhinovirus 16 polymerase (HRV16pol) was measured as an incorporation of tritiated NMP into acid-insoluble RNA products. hV16pol assay reactions contained […] recombinant enzyme, 50 nM heteropolymeric RNA, about 0.5 μCi tritiated NTP, 0.1 mM of competing cold NTP, 40 mM Tris-HCl (pH 7.0), […] dithiothreitol and 0.5 mM MgCl2. Standard reactions were incubated for 2.5 h at 30° C., in the presence of increasing concentration of inhibitor. At the end of the reaction, RNA was precipitated with 10% TCA and acid-insoluble RNA products were filtered on a size exclusion 96-well plate. After washing of the plate, scintillation liquid was added and radiolabeled RNA products were detected using standard procedures with a Trilux Microbeta scintillation counter. The compound concentration at which the enzyme-catalyzed rate was reduced by 50% (IC50) was calculated by fitting the data to a non-linear regression (sigmoidal).

NS5B-BK (Delta-21) = NS5B-BK (Delta-21) (Hepatitis C virus genotype 1b, UniProt P26663); assay: biochemical; set-up: species or system HCV
Sequence of NS5B-BK (Delta-21) (P26663 2420-2989 limits assumed): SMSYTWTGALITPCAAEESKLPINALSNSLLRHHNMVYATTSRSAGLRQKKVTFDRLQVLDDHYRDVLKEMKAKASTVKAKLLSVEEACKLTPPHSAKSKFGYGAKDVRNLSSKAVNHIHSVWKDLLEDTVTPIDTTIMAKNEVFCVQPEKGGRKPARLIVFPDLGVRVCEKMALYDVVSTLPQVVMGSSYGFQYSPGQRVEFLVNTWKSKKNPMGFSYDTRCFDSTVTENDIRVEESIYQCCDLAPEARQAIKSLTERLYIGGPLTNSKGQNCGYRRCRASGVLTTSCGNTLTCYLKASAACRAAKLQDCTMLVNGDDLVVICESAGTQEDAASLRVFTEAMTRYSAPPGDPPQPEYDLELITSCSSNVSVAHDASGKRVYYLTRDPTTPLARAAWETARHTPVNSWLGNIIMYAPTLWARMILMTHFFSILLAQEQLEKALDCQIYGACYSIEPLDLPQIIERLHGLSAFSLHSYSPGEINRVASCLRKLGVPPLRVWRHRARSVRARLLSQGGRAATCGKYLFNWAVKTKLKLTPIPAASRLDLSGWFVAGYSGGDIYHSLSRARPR

[3] = Huh7.5, Dengue virus type 2 (NG-C strain)
[4] = Rhinovirus A, HeLa-OHIO cells, 33° C.
[5] = Dengue virus type 2 (NG-C strain)

Compound `C#C[C@]1(O)[C@H](n2cnc3c(N)ncnc32)O[C@](F)(COC(C)=O)[C@H]1OC(C)=O` [Compound 2, ((2S,3S,4R,5R)-3-acetoxy-5-(6-amino-9H-purin-9-yl)-4-ethynyl-2-fluoro-4-hydroxytetrahydrofuran-2-yl)methyl acetate] has an EC50 [1, 3] of under 3 µM and an EC50 (Human rhinovirus 1B; [4]) of under 3 µM.

For `C#C[C@]1(O)[C@H](n2cnc3c(N)ncnc32)O[C@](F)(COC(=O)C(C)C)[C@H]1OC(=O)C(C)C` [Compound 3, (2S,3S,4R,5R)-5-(6-amino-9H-purin-9-yl)-4-ethynyl-2-fluoro-4-hydroxy-2-((isobutyryloxy)methyl)tetrahydrofuran-3-ylisobutyrate], the EC50 [1, 3] was under 3 µM and the EC50 (Human rhinovirus 1B; [4]) was under 3 µM.

`C#C[C@@]1(O)[C@H](O)[C@@H](CO)O[C@H]1n1cnc2c(N)nc(F)nc21` [Compound 4, (2R,3R,4R,5R)-2-(6-amino-2-fluoro-9H-purin-9-yl)-3-ethynyl-5-(hydroxymethyl)tetrahydrofuran-3,4-diol] was tested, and the EC50 [1, 3] was over 100 µM and the EC50 (Human rhinovirus 1B; [4]) was 3 to 30 µM.

Compound `C#C[C@]1(O)[C@H](n2ccc3c(N)ncnc32)O[C@](F)(CO)[C@H]1O` [Compound 6, (2S,3S,4R,5R)-5-(4-amino-7H-pyrrolo[2,3-d]pyrimidin-7-yl)-4-ethynyl-2-fluoro-2-(hydroxymethyl)tetrahydrofuran-3,4-diol] has an EC50 [1, 3] of 3 to 30 µM and an EC50 (Human rhinovirus 1B; [4]) of under 3 µM.

`C#C[C@]1(O)[C@H](n2cc(C(N)=O)c3c(N)ncnc32)O[C@](F)(CO)[C@H]1O` [Compound 10, 4-amino-7-((2R,3R,4S,5S)-3-ethynyl-5-fluoro-3,4-dihydroxy-5-(hydroxymethyl)tetrahydrofuran-2-yl)-7H-pyrrolo[2,3-d]pyrimidine-5-carboxamide] was tested, and the EC50 [1, 3] was 3 to 30 µM and the EC50 (Human rhinovirus 1B; Rhinovirus A) was over 100 µM.

`C[C@@]1(O)[C@H](O)[C@@H](CO)O[C@H]1n1cnc2c(N)nc(F)nc21` [Compound 16] was tested, and the EC50 [1, 3] was over 100 µM and the EC50 (Human rhinovirus 1B; [4]) was 3 to 30 µM.

`C#C[C@@]1(O)[C@H](O)[C@@H](COP(=O)(O)OP(=O)(O)OP(=O)(O)O)O[C@H]1n1cnc2c(N)nc(F)nc21` [Compound 17] was tested, and the IC50 (Dengue viral polymerase) was 3 to 30 µM, the IC50 [2] was under 3 µM and the IC50 (NS5B-BK (Delta-21)) was under 3 µM.

With `C#C[C@@]1(O)[C@H](O)[C@@H](COP(=O)(O)OP(=O)(O)OP(=O)(O)O)O[C@H]1n1cnc2c(N)nc(N)nc21` [Compound 18] the IC50 (Dengue viral polymerase) was 3 to 30 µM, the IC50 [2] was under 3 µM and the IC50 (NS5B-BK (Delta-21)) was under 3 µM.

`C#C[C@]1(O)[C@H](n2ccc3c(N)ncnc32)O[C@](F)(COP(=O)(O)OP(=O)(O)OP(=O)(O)O)[C@H]1O` [Compound 19] was tested, and the IC50 (Dengue viral polymerase) was 3 to 30 µM, the IC50 [2] was under 3 µM and the IC50 (NS5B-BK (Delta-21)) was under 3 µM.

In the case of `C[C@]1(O)[C@H](n2cnc3c(N)ncnc32)O[C@](F)(COP(=O)(O)OP(=O)(O)OP(=O)(O)O)[C@H]1O` [Compound 20], the IC50 (Dengue viral polymerase) is reported as 3 to 30 µM, the IC50 [2] is reported as under 3 µM and the IC50 (NS5B-BK (Delta-21)) is reported as under 3 µM.

Work on `C[C@]1(F)[C@H](n2cnc3c(N)nc(N)nc32)O[C@](F)(COP(=O)(O)OP(=O)(O)OP(=O)(O)O)[C@H]1O` [Compound 21] yielded an IC50 (Dengue viral polymerase) of 30 to 100 µM, an IC50 [2] of under 3 µM and an IC50 (NS5B-BK (Delta-21)) of under 3 µM.

`C[C@]1(F)[C@H](n2cnc3c(N)ncnc32)O[C@](F)(COP(=O)(O)OP(=O)(O)OP(=O)(O)O)[C@H]1O` [Compound 22] was tested, and the IC50 (Dengue viral polymerase) was 3 to 30 µM, the IC50 [2] was under 3 µM and the IC50 (NS5B-BK (Delta-21)) was under 3 µM.

Compound `C#C[C@]1(O)[C@H](n2cnc3c(N)ncnc32)O[C@](F)(COP(=O)(O)OP(=O)(O)OP(=O)(O)O)[C@H]1O` [Compound 23] has an IC50 (Dengue viral polymerase) of under 3 µM, an IC50 [2] of under 3 µM and an IC50 (NS5B-BK (Delta-21)) of under 3 µM.

`C#C[C@@]1(O)[C@H](O)[C@@H](CO)O[C@H]1c1cnc2c(N)ncnn12` [Compound 27, (2S,3R,4R,5R)-2-(4-aminoimidazo[2,1-f][1,2,4]triazin-7-yl)-3-ethynyl-5-(hydroxymethyl)tetrahydrofuran-3,4-diol] showed an EC50 [1, 3] of under 3 µM and an EC50 (Human rhinovirus 1B; [4]) of under 3 µM.

Work on `C#C[C@]1(OC(C)=O)[C@H](n2cnc3c(N)ncnc32)O[C@](F)(COC(C)=O)[C@H]1OC(C)=O` [Compound 34, (2S,3S,4R,5R)-2-(acetoxymethyl)-5-(6-amino-9H-purin-9-yl)-4-ethynyl-2-fluorotetrahydrofuran-3,4-diyldiacetate] yielded an EC50 [1, 5] of under 3 µM and an EC50 (Human rhinovirus 1B; HeLa-OHIO cells, 33° C.) of under 3 µM.

Compound `C#C[C@]1(O)[C@H](n2cnc3c(N)ncnc32)O[C@](F)(COC(=O)CC)[C@H]1OC(=O)CC` [Compound 36] has an EC50 [1, 3] of under 3 µM and an EC50 (Human rhinovirus 1B; [4]) of under 3 µM.

Compound `C#C[C@]1(O)[C@H](n2cnc3c(N)ncnc32)O[C@](F)(COC(=O)CCC)[C@H]1OC(=O)CCC` [Compound 37, (2S,3S,4R,5R)-5-(6-amino-9H-purin-9-yl)-2-((butyryloxy)methyl)-4-ethynyl-2-fluoro-4-hydroxytetrahydrofuran-3-ylbutyrate] has an EC50 [1, 3] of under 3 µM and an EC50 (Human rhinovirus 1B; [4]) of under 3 µM.

Compound `C#C[C@]1(OC(=O)CC)[C@H](n2cnc3c(N)ncnc32)O[C@](F)(COC(=O)CC)[C@H]1OC(=O)CC` [Compound 38, (2S,3S,4R,5R)-5-(6-amino-9H-purin-9-yl)-4-ethynyl-2-fluoro-2-((propionyloxy)methyl)tetrahydrofuran-3,4-diyldipropionate] has an EC50 [1, 3] of under 3 µM and an EC50 (Human rhinovirus 1B; [4]) of under 3 µM.

In the case of `C#C[C@]1(O)[C@H](n2cnc3c(N)ncnc32)O[C@](F)(CO)[C@H]1OC(=O)CCCCCCCCC` [Compound 39, (2S,3S,4R,5R)-5-(6-amino-9H-purin-9-yl)-4-ethynyl-2-fluoro-4-hydroxy-2-(hydroxymethyl)tetrahydrofuran-3-yldecanoate], the EC50 [1, 3] is reported as under 3 µM and the EC50 (Human rhinovirus 1B; [4]) is reported as under 3 µM.

`C#C[C@]1(O)[C@H](n2cnc3c(NC(=O)OC(C)(C)C)ncnc32)O[C@](F)(COC(c2ccccc2)(c2ccccc2)c2ccc(OC)cc2)[C@H]1OC(=O)CCCCCCC` [Compound 40] showed an EC50 [1, 5] of under 3 µM and an EC50 (Human rhinovirus 1B; HeLa-OHIO cells, 33° C.) of under 3 µM.

`C#C[C@]1(O)[C@H](n2cnc3c(N)ncnc32)O[C@](F)(CO)[C@H]1OC(=O)[C@@H](N)C(C)C` [Compound 41, (2S,3S,4R,5R)-5-(6-amino-9H-purin-9-yl)-4-ethynyl-2-fluoro-4-hydroxy-2-(hydroxymethyl)tetrahydrofuran-3-yl L-valinate] was tested, and the EC50 [1, 3] was under 3 µM and the EC50 (Human rhinovirus 1B; [4]) was under 3 µM.

`C#C[C@]1(O)[C@H](n2cnc3c(NC(=O)OC(C)(C)C)ncnc32)O[C@](F)(COC(c2ccccc2)(c2ccccc2)c2ccc(OC)cc2)[C@H]1OC(=O)CCCCCCCCCCC` [Compound 42, (2S,3S,4R,5R)-5-(6-((tert-butoxycarbonyl)amino)-9H-purin-9-yl)-4-ethynyl-2-fluoro-4-hydroxy-2-(((4-methoxyphenyl)diphenylmethoxy)methyl)tetrahydrofuran-3-yl-dodecanoate] showed an EC50 [1, 3] of under 3 µM and an EC50 (Human rhinovirus 1B; [4]) of under 3 µM.

`C#C[C@]1(O)[C@H](n2cnc3c(N)ncnc32)O[C@](F)(COC(=O)CCCCCCCCC)[C@H]1O` [Compound 44, ((2S,3S,4R,5R)-5-(6-amino-9H-purin-9-yl)-4-ethynyl-2-fluoro-3,4-dihydroxytetrahydrofuran-2-yl)methyldecanoate] showed an EC50 [1, 3] of under 3 µM and an EC50 (Human rhinovirus 1B; [4]) of under 3 µM.

For `C#C[C@]1(O)[C@H](n2cnc3c(N)ncnc32)O[C@](F)(CO)[C@H]1OC(=O)NCCC` [Compound 49, (2S,3S,4R,5R)-5-(6-amino-9H-purin-9-yl)-4-ethynyl-2-fluoro-4-hydroxy-2-(hydroxymethyl)tetrahydrofuran-3-ylpropylcarbamate], the EC50 [1, 5] was 30 to 100 µM and the EC50 (Human rhinovirus 1B; HeLa-OHIO cells, 33° C.) was 3 to 30 µM.

For “(2S,3S,4R,5R)-5-(4-amino-5-fluoro-7H-pyrrolo[2,3-d]pyrimidin-7-yl)-4-ethynyl-2-fluoro-2-(hydroxymethyl)tetrahydrofuran-3,4-diol [Compound 31]”, the EC50 [1, 5] was under 3 µM and the EC50 (Human rhinovirus 1B; HeLa-OHIO cells, 33° C.) was under 3 µM.
